Assay results taken from patent EP2140864A2 (H. Lundbeck A/S, priority 2001, dated 2002).
Where two headings read alike, the source gives them in different places.

What was measured:
human GAL1 receptor = target: T1, human GAL1 receptor (Homo sapiens, UniProt P47211); assay: Radioligand binding at cloned human GAL1 receptor
T1 construct: expressed in transfected cells
T1 sequence (P47211 1-349): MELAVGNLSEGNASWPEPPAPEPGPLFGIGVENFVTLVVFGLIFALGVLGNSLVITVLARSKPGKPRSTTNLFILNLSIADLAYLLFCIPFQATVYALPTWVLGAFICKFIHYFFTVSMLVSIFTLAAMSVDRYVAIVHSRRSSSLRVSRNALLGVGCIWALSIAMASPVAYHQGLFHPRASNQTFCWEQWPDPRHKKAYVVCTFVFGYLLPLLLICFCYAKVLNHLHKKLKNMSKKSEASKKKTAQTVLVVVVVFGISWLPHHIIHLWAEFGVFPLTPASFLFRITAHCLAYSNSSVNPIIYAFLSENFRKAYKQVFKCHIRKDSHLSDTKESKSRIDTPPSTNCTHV
Method: The binding properties of the pyrimidines of the present invention were evaluated at the cloned human galanin receptors, GAL1, GAL2, and GAL3, using protocols described herein. […]
(§1) LM(tk-) cells were stably transfected with the human GAL1 or GAL3 receptor. CHO cells were stably transfected with the human GAL2 receptor.
(§2) cDNAs for the human and rat GAL1, and human and rat GAL3 receptors were transfected with a G-418 resistant gene into the mouse fibroblast LM(tk-) cell line by a calcium phosphate transfection method (Cullen, 1987). Stably transfected cells were selected with G-418. Human and rat GAL2 receptors were similarly transfected into CHO cells.
(§3) Membranes were harvested from stably transfected LM(tk-) cells. Adherent cells were washed twice in ice-cold phosphate buffered saline (138 mM NaCl, 8.1 mM Na2HPO4, 2.5 mM KCl, 1.2 mM KH2PO4, 0.9 mM CaCl2, 0.5 mM MgCl2, pH 7.4) and lysed by sonication in ice-cold sonication buffer (20 mM Tris-HCl, 5 mM EDTA, pH 7.7). Large particles and debris were cleared by low speed centrifugation (200 x g, 5 min, 4°C). Membranes were collected from the supernatant fraction by centrifugation (32,000 x g, 18 min, 4°C), washed with ice-cold hypotonic buffer, and collected again by centrifugation (32,000 x g, 18 min, 4°C). The final membrane pellet was resuspended by sonication into a small volume of ice-cold binding buffer (-1 ml for every 5 plates: 10 mM NaCl, 20 mM HEPES, 0.22 mM KH2PO4, 1.26 mM CaCl2, 0.81 mM MgSO4, pH 7.4). Protein concentration was measured by the Bradford method (Bradford, 1976) using Bio-Rad Reagent, with bovine serum albumin as a standard. Membranes were held on ice for up to one hour and used fresh, or flash frozen and stored in liquid nitrogen. Membranes were prepared similarly from CHO cells.
(§4) Galanin Recentors: Binding assays were performed according to the following published methods: human GAL3 (PCT International Publication No. WO 98/15570), human GAL1 (PCT International Publication No. WO 95/2260), human GAL2 (PCT International Publication No. WO 97/26853).
(§5) Binding data were analyzed using nonlinear regression and statistical techniques available in the GraphPAD Prism package (San Diego, CA). Enzymatic assay data were derived from a standard curve of reference compound data.

human GAL2 receptor = target: T2, human GAL2 receptor (Homo sapiens, UniProt O43603); assay: Radioligand binding at cloned human GAL2 receptor
T2 construct: expressed in transfected cells
T2 sequence (O43603 1-387): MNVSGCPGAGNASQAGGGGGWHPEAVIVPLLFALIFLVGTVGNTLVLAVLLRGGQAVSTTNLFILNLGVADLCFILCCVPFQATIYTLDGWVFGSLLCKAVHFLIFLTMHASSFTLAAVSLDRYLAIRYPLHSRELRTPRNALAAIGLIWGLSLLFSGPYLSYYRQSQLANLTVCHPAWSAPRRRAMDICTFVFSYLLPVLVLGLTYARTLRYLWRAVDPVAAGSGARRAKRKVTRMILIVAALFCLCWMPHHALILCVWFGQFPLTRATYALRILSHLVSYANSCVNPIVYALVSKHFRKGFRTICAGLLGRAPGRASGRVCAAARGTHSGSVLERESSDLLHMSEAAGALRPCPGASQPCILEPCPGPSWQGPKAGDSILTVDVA
Method: The binding properties of the pyrimidines of the present invention were evaluated at the cloned human galanin receptors, GAL1, GAL2, and GAL3, using protocols described herein.
The binding properties of the indolones of the present invention were evaluated at the cloned human galanin receptors, GAL1, GAL2, and GAL3, using protocols described herein.
as §1, §2, §3, §4, §5

human GAL3 receptor = target: T3, human GAL3 receptor (Homo sapiens, UniProt O60755); assay: Radioligand binding at cloned human GAL3 receptor
T3 construct: expressed in transfected cells
T3 sequence (O60755 1-368): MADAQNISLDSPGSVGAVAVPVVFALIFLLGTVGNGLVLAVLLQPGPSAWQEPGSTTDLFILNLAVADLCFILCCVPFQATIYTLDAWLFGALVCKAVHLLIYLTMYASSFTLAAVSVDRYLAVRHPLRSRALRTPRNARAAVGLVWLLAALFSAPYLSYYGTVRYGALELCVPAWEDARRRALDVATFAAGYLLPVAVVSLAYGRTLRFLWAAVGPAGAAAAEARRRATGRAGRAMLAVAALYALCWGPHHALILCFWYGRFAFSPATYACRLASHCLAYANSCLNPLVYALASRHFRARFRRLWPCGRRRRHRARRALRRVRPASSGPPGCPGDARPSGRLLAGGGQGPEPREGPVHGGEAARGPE
Procedure, shortened: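 Compound vehicle, as final assay concentration, was 3% DMSO (indolones) or 1% ethanol/0.09% polypuronic acid F-127 (pyrimidines). Binding measured on fresh or frozen membranes of stably transfected LM(tk-) mouse fibroblasts carrying cloned human GAL3, in pH 7.4 HEPES buffer; values derived by nonlinear regression.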

[1] = pyrimidines, read-out: Ki GalR1
[2] = pyrimidines, read-out: Ki GalR2
[3] = pyrimidines, cloned human receptor; read-out: Ki GalR3

SMILES | Ki (human GAL1 receptor; [1]) [nM] | Ki (human GAL2 receptor; [2]) [nM] | Ki (human GAL3 receptor; [3]) [nM] | Ki (human GAL1 receptor; read-out: Ki GalR1, pyrimidines) [nM] | Ki (human GAL2 receptor; read-out: Ki GalR2, pyrimidines) [nM] | Ki (human GAL3 receptor; read-out: Ki GalR3; pyrimidines, cloned human receptor) [nM]
Cc1ccc(Nc2cc(N3CCCCC3)nc(N(C)C3CCCCC3)n2)cc1 [Example 1] | 668 | 188 | 35 |  |  | 
COCCN(c1nc(Nc2ccc(C)cc2)cc(N2CCCCC2)n1)C1CCCCC1 [Example 2] | 2820 | 562 | 26 |  |  | 
Cc1ccc(Nc2cc(N3CCCCC3)nc(Nc3ccc(Cl)cc3)n2)cc1 [Example 5] | > 5000 | > 5000 | 345 |  |  | 
Cc1ccc(Nc2cc(N3CCCCC3)nc(N(C)c3ccc(C)cc3)n2)cc1 [Example 7] | 1110 | 775 | 177 |  |  | 
CN(CCc1c[nH]c2ccccc12)c1nc(Nc2ccc3ccccc3c2)cc(N2CCCCC2)n1 [Example 13] | 2070 | 1410 | 81 |  |  | 
CCN(CCc1c[nH]c2ccccc12)c1nc(Nc2ccc(C)cc2)cc(N2CCCCC2)n1 [Example 18] | 3590 | 543 | 40 |  |  | 
Cc1ccc(Nc2cc(N3CCCCC3)nc(NC(C)Cc3c[nH]c4ccccc34)n2)cc1 (centres unmarked) [Example 20] | > 5000 | > 5000 | 164 |  |  | 
Cc1ccc(Nc2cc(N3CCCCC3)nc(N(C)C(C)Cc3c[nH]c4ccccc34)n2)cc1 (centres unmarked) [Example 21] | 4790 | 1100 | 49 |  |  | 
Cc1ccc(Nc2cc(N3CCCCC3)nc(N3CCN(c4ccccc4)CC3)n2)cc1 [Example 25] | > 5000 | 1500 | 548 |  |  | 
Cc1ccc(Nc2cc(N3CCCCC3)nc(N3CCN(c4c(C)cccc4C)CC3)n2)cc1 [Example 27] | 2690 | 272 | 63 |  |  | 
COc1ccc(N2CCN(c3nc(Nc4ccc(C)cc4)cc(N4CCCCC4)n3)CC2)c(OC)c1 [Example 28] |  |  |  | > 5000 | > 5000 | 270
Cc1ccc(Nc2cc(N3CCCCC3)nc(N3CCN(c4cccc(C(F)(F)F)c4)CC3)n2)cc1 [Example 29] | 716 | 359 | 46 |  |  | 
FC(F)(F)c1cccnc1N1CCN(c2nc(NC3CC4CCC3C4)cc(N3CCCCC3)n2)CC1 (centres unmarked) [Example 36] | 442 | 90 | 93 |  |  | 
Cc1ccc(Nc2cc(N3CCCCC3)nc(N3CCCC3)n2)cc1 [Example 38] | 2900 | 516 | 320 |  |  | 
Cc1ccc(Nc2cc(N3CCCCC3)nc(N3CCc4ccccc4C3)n2)cc1 [Example 41] | 2130 | 840 | 151 |  |  | 
Cc1ccc(Nc2cc(N3CCCCC3)nc(N3CCOCC3c3ccccc3)n2)cc1 (centres unmarked) [Example 46] | > 5000 | > 5000 | 577 |  |  | 

SMILES | Ki (human GAL1 receptor; [1]) [nM] | Ki (human GAL2 receptor; [2]) [nM] | Ki (human GAL3 receptor; [3]) [nM] | Ki (human GAL1 receptor; read-out: Ki GalR1, pyrimidines) [nM] | Ki (human GAL2 receptor; read-out: Ki GalR2, pyrimidines) [nM] | Ki (human GAL3 receptor; read-out: Ki GalR3; pyrimidines, cloned human receptor) [nM]
Cc1ccc(Nc2cc(N3CCCCC3)nc(N3CCOC(c4ccccc4)C3)n2)cc1 (centres unmarked) [Example 47] | > 5000 | 3010 | 115 |  |  | 
Cc1ccc(Nc2cc(N3CCCCC3)nc(N3CCO[C@@H](c4ccccc4)[C@H]3C)n2)cc1 [Example 48] | > 5000 | 4230 | 120 |  |  | 
CN(C)c1cc(Nc2ccc(Cl)cc2)nc(Nc2ccccc2)n1 [Example 58] | > 5000 | > 5000 | 783 |  |  | 
Cc1cc(Nc2cc(N(C)C)nc(Nc3ccccc3)n2)ccc1Cl [Example 61] | > 5000 | > 5000 | 753 |  |  | 
Cc1ccc(Nc2cc(N(C)C)nc(Nc3ccccc3)n2)cc1Cl [Example 62] | > 5000 | > 5000 | 736 |  |  | 
CC1CCC(Nc2cc(N(C)C)nc(Nc3ccccc3)n2)CC1 (centres unmarked) [Example 67] | > 5000 | > 5000 | 752 |  |  | 
CN(C)c1cc(NC2CCC(C(C)(C)C)CC2)nc(Nc2ccccc2)n1 (centres unmarked) [Example 68] | > 5000 | 2150 | 164 |  |  | 
CN(C)c1cc(NC2CC3CCC2C3)nc(Nc2ccccc2)n1 (centres unmarked) [Example 69] | > 5000 | > 5000 | 417 |  |  | 
CN(C)c1cc(NC2CC3CCC2(C)C3(C)C)nc(Nc2ccccc2)n1 (centres unmarked) [Example 70] | > 5000 | 944 | 476 |  |  | 
COCCN(c1nc(Nc2ccc(C)cc2)cc(N(C)C)n1)C1CCCCC1 [Example 74] | 2290 | 468 | 47 |  |  | 
Cc1ccc(Nc2cc(N(C)C)nc(N3CCc4ccccc43)n2)cc1 [Example 75] | 1460 | 2460 | 144 |  |  | 
Cc1ccc(Nc2cc(N(C)C)nc(N3CCC(O)(c4ccccc4)CC3)n2)cc1 [Example 80] |  | 2480 | 615 |  |  | 
Cc1ccc(Nc2cc(N(C)C)nc(N3CCC(c4ccccc4)CC3)n2)cc1 [Example 81] |  | 4790 | 160 |  |  | 
Cc1ccc(Nc2cc(N(C)C)nc(N3CCN(c4ccccc4C)CC3)n2)cc1 [Example 85] |  | 4230 | 72 |  |  | 
Cc1ccc(Nc2cc(N(C)C)nc(N3CCN(c4ccc(C)cc4)CC3)n2)cc1 [Example 87] |  | 4620 | 157 |  |  | 
